According to patent publication US12097193B2, “Methods for the administration of COMT inhibitors” (BIAL—PORTELA & CA, S.A., priority 2018, dated 2024):
Like-named read-outs stand apart in the source and are kept apart here.

What was measured:
[1] = target: P-gp/MDR1 efflux transporter (Homo sapiens, UniProt P08183); settings: in vitro; cited from earlier work
[2] = target: T1, OATP1B1 (Homo sapiens, UniProt Q9Y6L6); settings: in vitro; cited from earlier work
T1 sequence (Q9Y6L6 1-691): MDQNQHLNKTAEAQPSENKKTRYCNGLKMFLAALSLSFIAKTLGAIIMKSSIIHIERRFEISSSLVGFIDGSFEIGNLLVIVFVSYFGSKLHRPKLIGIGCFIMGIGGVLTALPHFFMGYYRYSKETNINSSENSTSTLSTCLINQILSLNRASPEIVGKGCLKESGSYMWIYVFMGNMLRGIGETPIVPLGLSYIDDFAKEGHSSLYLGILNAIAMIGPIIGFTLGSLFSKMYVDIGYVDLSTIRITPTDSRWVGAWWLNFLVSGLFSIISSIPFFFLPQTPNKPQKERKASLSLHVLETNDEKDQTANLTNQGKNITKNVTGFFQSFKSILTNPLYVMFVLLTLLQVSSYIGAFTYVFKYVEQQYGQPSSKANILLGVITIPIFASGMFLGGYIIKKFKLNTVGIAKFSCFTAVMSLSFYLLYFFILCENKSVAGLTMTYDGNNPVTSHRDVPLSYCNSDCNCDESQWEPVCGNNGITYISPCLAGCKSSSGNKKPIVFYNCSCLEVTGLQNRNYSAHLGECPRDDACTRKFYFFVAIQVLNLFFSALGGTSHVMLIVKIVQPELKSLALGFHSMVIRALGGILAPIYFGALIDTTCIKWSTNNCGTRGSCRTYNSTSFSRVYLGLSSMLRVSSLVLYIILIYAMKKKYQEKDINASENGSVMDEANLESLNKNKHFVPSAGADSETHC

[3] = Phase 1 two-period crossover study of the effect of quinidine on the pharmacokinetics of opicapone (plasma PK); format: in vivo, human; settings: for AUC(0-inf) / AUC(0-t) / Cmax / half-life: plasma, 50 mg
Description: A Phase 1, Randomized, Open-Label, Two-Period Crossover Study to Assess the Effect of Quinidine on the Pharmacokinetics of Opicapone (OPC) in Healthy Subjects
This was a Phase 1, randomized, open-label, 2-period crossover drug interaction study of the effect of quinidine on the PK of OPC in healthy subjects. A total of 20 subjects (10 males and 10 females) were randomized to 1 of 2 treatment sequences (5 males and 5 females per sequence) as depicted in the table below. Randomization to treatment sequence were stratified by gender. Enrolled subjects received a single dose of each of the following treatments under fasted conditions: OPC 50 mg and quinidine 600 mg plus OPC 50 mg (OPC will be administered 1 hour after quinidine). There was be a 14-day washout between the doses in each treatment period.
Subjects fasted overnight for at least 10 hours before OPC dosing on Day 1 and continued to fast for an additional 4 hours after OPC dosing.
Blood samples for the assessment of plasma concentrations of OPC and its metabolites were collected within 30 minutes predose and approximately 0.5, 1, 1.5, 2, 3, 4, 6, 8, 10, 12, 24, 48, 72, 96, and 120 hours postdose. The PK parameters to be calculated included the following for OPC and its metabolites:
Blood samples for the assessment of plasma concentrations of OPC and its metabolites were collected within 30 minutes predose and approximately 0.5, 1, 1.5, 2, 3, 4, 6, 8, 10, 12, 24, 48, 72, 96, and 120 hours postdose.
The following plasma PK parameters were calculated only for OPC: • Apparent systemic clearance after oral administration (CL/F). • Apparent volume of distribution during the terminal phase after oral administration (Vz/F).
PK parameters for OPC and its metabolites were calculated using noncompartmental methods. […] Safety data will be summarized with descriptive statistics.
Pharmacokinetic parameters (AUC0-inf, AUC0-t, and Cmax) for Opicapone were natural log-transformed prior to analysis and evaluated separately using a linear mixed effects model with fixed effects terms for sequence, period, and treatment. […] CV %=SQRT[exp(s^2)−1]×100 and ‘s’ is the standard deviation of the log-transformed values.

[4] = target: T2, OATP1B3 (Homo sapiens, UniProt Q9NPD5); settings: in vitro; cited from earlier work
T2 sequence (Q9NPD5 1-702): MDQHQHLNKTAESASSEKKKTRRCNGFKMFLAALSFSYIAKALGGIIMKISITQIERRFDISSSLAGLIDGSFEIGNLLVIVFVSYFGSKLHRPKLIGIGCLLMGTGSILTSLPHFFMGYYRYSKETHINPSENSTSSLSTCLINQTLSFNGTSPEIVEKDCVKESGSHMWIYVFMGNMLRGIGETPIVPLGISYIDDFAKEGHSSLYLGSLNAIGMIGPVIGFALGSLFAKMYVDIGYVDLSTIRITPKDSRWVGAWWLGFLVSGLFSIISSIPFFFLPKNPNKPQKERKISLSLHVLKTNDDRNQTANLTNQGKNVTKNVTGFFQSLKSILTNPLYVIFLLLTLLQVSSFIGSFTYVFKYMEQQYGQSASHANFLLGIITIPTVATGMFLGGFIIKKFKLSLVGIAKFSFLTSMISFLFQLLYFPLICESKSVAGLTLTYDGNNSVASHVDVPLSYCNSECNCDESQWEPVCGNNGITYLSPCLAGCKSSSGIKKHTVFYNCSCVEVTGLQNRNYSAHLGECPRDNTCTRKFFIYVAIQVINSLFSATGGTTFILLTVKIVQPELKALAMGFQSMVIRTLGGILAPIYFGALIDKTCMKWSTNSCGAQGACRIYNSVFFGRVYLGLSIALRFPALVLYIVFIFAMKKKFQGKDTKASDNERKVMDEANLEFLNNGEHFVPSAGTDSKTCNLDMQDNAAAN

[5] = target: T3, BCRP (Homo sapiens, UniProt Q9UNQ0); settings: in vitro; cited from earlier work
T3 sequence (Q9UNQ0 1-655): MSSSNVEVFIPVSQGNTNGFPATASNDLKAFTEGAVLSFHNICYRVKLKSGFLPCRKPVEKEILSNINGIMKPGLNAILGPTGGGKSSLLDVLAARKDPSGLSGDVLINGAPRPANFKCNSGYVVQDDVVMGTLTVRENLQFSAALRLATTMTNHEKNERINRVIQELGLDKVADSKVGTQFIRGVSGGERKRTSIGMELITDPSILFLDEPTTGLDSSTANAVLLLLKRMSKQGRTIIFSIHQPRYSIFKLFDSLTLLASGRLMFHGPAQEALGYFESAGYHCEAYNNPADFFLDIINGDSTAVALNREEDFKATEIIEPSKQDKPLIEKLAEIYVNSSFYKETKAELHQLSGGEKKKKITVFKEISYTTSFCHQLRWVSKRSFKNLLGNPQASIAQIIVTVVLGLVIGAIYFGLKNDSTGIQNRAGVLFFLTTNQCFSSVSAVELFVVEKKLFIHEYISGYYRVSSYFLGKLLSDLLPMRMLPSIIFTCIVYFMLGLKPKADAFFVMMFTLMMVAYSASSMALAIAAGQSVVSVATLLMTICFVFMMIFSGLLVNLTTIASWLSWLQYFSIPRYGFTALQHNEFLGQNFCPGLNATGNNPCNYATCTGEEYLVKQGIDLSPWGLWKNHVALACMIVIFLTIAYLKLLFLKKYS

Chain of P-gp/MDR1 efflux transporter (P08183 whole entry): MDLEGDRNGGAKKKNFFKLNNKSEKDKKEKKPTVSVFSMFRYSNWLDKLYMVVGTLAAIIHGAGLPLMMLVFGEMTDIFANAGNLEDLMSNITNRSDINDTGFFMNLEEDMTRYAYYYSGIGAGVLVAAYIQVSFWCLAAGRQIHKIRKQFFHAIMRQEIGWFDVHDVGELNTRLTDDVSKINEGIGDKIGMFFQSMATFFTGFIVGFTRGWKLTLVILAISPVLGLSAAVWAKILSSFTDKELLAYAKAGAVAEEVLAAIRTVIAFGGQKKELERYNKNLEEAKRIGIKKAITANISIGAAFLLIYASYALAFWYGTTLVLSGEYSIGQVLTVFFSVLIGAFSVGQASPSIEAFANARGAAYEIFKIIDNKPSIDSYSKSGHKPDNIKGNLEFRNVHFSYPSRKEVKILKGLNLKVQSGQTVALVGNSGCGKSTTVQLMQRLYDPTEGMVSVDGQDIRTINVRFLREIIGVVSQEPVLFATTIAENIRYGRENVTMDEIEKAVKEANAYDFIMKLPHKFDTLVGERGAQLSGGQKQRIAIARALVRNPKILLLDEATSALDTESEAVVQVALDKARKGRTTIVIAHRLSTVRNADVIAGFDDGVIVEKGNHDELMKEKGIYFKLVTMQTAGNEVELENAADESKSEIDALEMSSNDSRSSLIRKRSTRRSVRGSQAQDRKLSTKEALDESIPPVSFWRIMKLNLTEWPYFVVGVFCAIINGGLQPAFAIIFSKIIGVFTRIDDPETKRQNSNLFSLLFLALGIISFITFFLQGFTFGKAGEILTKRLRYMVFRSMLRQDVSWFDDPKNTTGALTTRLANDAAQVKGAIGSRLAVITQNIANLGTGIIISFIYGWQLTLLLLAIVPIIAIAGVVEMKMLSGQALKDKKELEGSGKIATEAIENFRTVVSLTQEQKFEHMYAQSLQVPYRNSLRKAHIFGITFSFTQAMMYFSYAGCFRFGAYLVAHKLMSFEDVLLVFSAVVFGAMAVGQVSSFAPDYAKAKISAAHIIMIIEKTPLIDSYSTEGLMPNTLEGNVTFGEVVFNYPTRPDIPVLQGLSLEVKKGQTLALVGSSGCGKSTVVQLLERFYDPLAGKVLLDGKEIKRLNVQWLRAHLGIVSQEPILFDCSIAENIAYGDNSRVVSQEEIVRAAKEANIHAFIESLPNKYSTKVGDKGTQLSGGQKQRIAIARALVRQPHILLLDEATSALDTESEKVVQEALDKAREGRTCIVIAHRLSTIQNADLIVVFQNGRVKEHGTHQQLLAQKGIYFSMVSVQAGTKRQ

SMILES: Cc1c(Cl)c(C)[n+]([O-])c(Cl)c1-c1noc(-c2cc(O)c(O)c([N+](=O)[O-])c2)n1 [OPC, 5-[3-(2,5-dichloro-4,6-dimethyl-1-oxy-pyridin-3-yl)-[1,2,4]oxadiazol-5-yl]-3-nitrobenzene-1,2-diol]
- efflux transported by P-gp (P-gp/MDR1 substrate) [1]: efflux transported
- transported by OATP1B1 [2]: not transported
- Tmax ([3]; both sexes, human, oral, opicapone in plasma, healthy subjects, fasted, single dose OPC 50 mg, Median): 91.8 min
- AUC(0-inf) ([3]; both sexes, human, oral, opicapone in plasma, healthy subjects, fasted, single dose OPC 50 mg, Geometric Mean (descriptive), read-out: AUC(0-inf), Geometric Mean): 2060 ng·h/mL
- AUC(0-t) ([3]; both sexes, human, oral, opicapone in plasma, healthy subjects, fasted, single dose OPC 50 mg, Geometric Mean (descriptive), read-out: AUC(0-last), Geometric Mean): 1960 ng·h/mL
- Cmax ([3]; both sexes, human, oral, opicapone in plasma, healthy subjects, fasted, single dose OPC 50 mg, Geometric Mean (descriptive), read-out: Cmax, Geometric Mean): 766 ng/mL
- half-life ([3]; both sexes, human, oral, opicapone in plasma, healthy subjects, fasted, single dose OPC 50 mg, Geometric Mean (descriptive), read-out: t½, Geometric Mean (converted)): 53.2 min
- AUC(0-inf) ([3]; both sexes, human, oral, opicapone in plasma, healthy subjects, fasted, single dose OPC 50 mg, Mean, read-out: AUC(0-inf), Mean): 2140 ng·h/mL
- AUC(0-t) ([3]; both sexes, human, oral, opicapone in plasma, healthy subjects, fasted, single dose OPC 50 mg, Mean, read-out: AUC(0-last), Mean): 2040 ng·h/mL
- Cmax ([3]; both sexes, human, oral, opicapone in plasma, healthy subjects, fasted, single dose OPC 50 mg, Mean, read-out: Cmax, Mean): 804 ng/mL
- half-life ([3]; both sexes, human, oral, opicapone in plasma, healthy subjects, fasted, single dose OPC 50 mg, Mean, read-out: t½, Mean (converted)): 55.1 min
- AUC(0-inf) ([3]; both sexes, human, oral, opicapone in plasma, healthy subjects, fasted, single dose OPC 50 mg, Median, read-out: AUC(0-inf), Median): 2020 ng·h/mL
- AUC(0-t) ([3]; both sexes, human, oral, opicapone in plasma, healthy subjects, fasted, single dose OPC 50 mg, Median, read-out: AUC(0-last), Median): 1940 ng·h/mL
- Cmax ([3]; both sexes, human, oral, opicapone in plasma, healthy subjects, fasted, single dose OPC 50 mg, Median, read-out: Cmax, Median): 782 ng/mL
- half-life ([3]; both sexes, human, oral, opicapone in plasma, healthy subjects, fasted, single dose OPC 50 mg, Median, read-out: t½, Median (converted)): 55.9 min
- AUC(0-inf) ([3]; both sexes, human, oral, opicapone, geometric mean from linear mixed effects model, OPC 50 mg, healthy subjects, read-out: AUC0-inf, GM): 2030 ng·h/mL
- AUC(0-t) ([3]; both sexes, human, oral, opicapone, geometric mean from linear mixed effects model, OPC 50 mg, healthy subjects, read-out: AUC0-t, GM): 1960 ng·h/mL
- Cmax ([3]; both sexes, human, oral, opicapone, geometric mean from linear mixed effects model, OPC 50 mg, healthy subjects, read-out: Cmax, GM): 766 ng/mL
- decrease in opicapone exposure ([3]; in those also being administered quinidine): approximately 30%
- Tlag, Median ([3]; opicapone in plasma, healthy subjects, fasted, single dose OPC 50 mg, Median): 0.00 h
- transported by OATP1B3 [4]: transported
- efflux transported by BCRP [5]: efflux transported

SMILES: Cc1c(Cl)c(C)[n+]([O-])c(Cl)c1-c1noc(-c2cc(OS(=O)(=O)O)c(O)c([N+](=O)[O-])c2)n1 [BIA 9-1103]
- efflux transported by P-gp (P-gp/MDR1 substrate) [1]: not a substrate
- transported by OATP1B1 [2]: transported
- transported by OATP1B3 [4]: transported
- efflux transported by BCRP [5]: efflux transported
